Experimental data reported in US10526345B2, “Compounds as GPR119 agonists” (Mankind Pharma Ltd., priority 2016, dated 2020).

Molecular target: T1, hGPR119 (Homo sapiens, UniProt Q8TDV5)
T1 construct: expressed in transfected cells; host or cells: CHO
T1 sequence (Q8TDV5 1-335): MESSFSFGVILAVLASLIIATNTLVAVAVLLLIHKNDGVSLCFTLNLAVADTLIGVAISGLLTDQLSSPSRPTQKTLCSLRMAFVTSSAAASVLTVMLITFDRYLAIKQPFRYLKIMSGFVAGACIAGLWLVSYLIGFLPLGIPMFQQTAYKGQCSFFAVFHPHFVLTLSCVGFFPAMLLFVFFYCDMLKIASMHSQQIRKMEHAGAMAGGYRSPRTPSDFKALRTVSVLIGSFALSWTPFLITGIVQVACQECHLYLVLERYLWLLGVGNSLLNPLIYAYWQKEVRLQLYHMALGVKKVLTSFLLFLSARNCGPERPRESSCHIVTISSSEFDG
Experiment: In vitro cyclic AMP assay (Cisbio dynamic 2 HTRF kit) in CHO-hGPR119 cells
Type: cell-based
Conditions: cAMP; for activation at 1 µM: 1 h, compound at 1 μM, 60 min, read-out: Induction (% induction at 1 μM)

SMILES	activation at 1 µM [%]	EC50 [nM]
CC(C)c1noc(N2CCC(C(C)Oc3nc4ccc(-c5ccnc(Cl)c5)nc4s3)CC2)n1 (stereo not drawn) [Compound 1132, 2-(1-(1-(3-isopropyl-1,2,4-oxadiazol-5-yl)piperidin-4-yl)ethoxy)-5-(2-chloropyridin-4-yl)thiazolo[5,4-b]pyridine]	38	–
CC(C)OC(=O)N1CCC(C(C)Oc2nc3ccc(-c4ccc(S(C)(=O)=O)cc4)nc3s2)CC1 (stereo not drawn) [Compound 1056, isopropyl 4-(1-((5-(4-(methylsulfonyl)phenyl)thiazolo[5,4-b]pyridin-2-yl)oxy)ethyl)piperidine-1-carboxylate]	51	–
C[C@H](Oc1nc2ccc(-c3ccc(S(C)(=O)=O)nc3)nc2s1)C1CCN(c2ncc(Cl)cn2)CC1 [Compound 1136, 2-((S)-1-(1-(5-chloropyrimidin-2-yl)piperidin-4-yl)ethoxy)-5-(6-(methylsulfonyl)pyridin-3-yl)thiazolo[5,4-b]pyridine]	82	100 to 500
CC(CC1CCN(c2nc(C(C)C)no2)CC1)Oc1nc2ccc(-c3ccc(S(C)(=O)=O)cc3)nc2s1 (stereo not drawn) [Compound 1043, 3-isopropyl-5-(4-(2-((5-(4-(methylsulfonyl)phenyl)thiazolo[5,4-b]pyridin-2-yl)oxy)propyl)piperidin-1-yl)-1,2,4-oxadiazole]	4	–
CC(C)c1noc(C2CCN(c3nc4ccc(-c5ccc(C(=O)N(C)C)cc5)nc4s3)CC2)n1 [Compound 1022, 4-(2-(4-(3-isopropyl-1,2,4-oxadiazol-5-yl)piperidin-1-yl)thiazolo[5,4-b]pyridin-5-yl)-N,N-dimethylbenzamide]	35	–
CC(C)c1noc(N2CCC(C(C)Oc3nc4ccc(-c5ccc(-n6cnnn6)cc5)nc4s3)CC2)n1 (stereo not drawn) [Compound 1079, 5-(4-(1-((5-(4-(1H-tetrazol-1-yl)phenyl)thiazolo[5,4-b]pyridin-2-yl)oxy)ethyl)piperidin-1-yl)-3-isopropyl-1,2,4-oxadiazole]	50	–
CC(C)c1noc(N2CCC([C@@H](C)Oc3nc4ccc(-c5ccncc5)nc4s3)CC2)n1 [Compound 1070, (R)-3-isopropyl-5-(4-(1-((5-(pyridin-4-yl)thiazolo[5,4-b]pyridin-2-yl)oxy)ethyl)piperidin-1-yl)-1,2,4-oxadiazole]	83	50 to 100

The remaining lines, values ahead:

activation at 1 µM [%]	EC50 [nM]	SMILES
64	–	CCc1cnc(N2CCC(C(C)Oc3nc4ccc(-c5ccncc5)nc4s3)CC2)nc1 (stereo not drawn) [Compound 1149, 2-(1-(1-(5-ethylpyrimidin-2-yl)piperidin-4-yl)ethoxy)-5-(pyridin-4-yl)thiazolo[5,4-b]pyridine]
20	–	CC(C)c1noc(N2CCC([C@H](C)Oc3nc4ccc(-c5ccc(S(C)(=O)=O)nc5F)nc4s3)CC2)n1 [Compound 1167, 2-((S)-1-(1-(3-isopropyl-1,2,4-oxadiazol-5-yl)piperidin-4-yl)ethoxy)-5-(2-fluoro-6-(methylsulfonyl)pyridin-3-yl)thiazolo[5,4-b]pyridine]
3	–	CC(C)c1noc(N2CCC([C@H](C)Oc3nc4ccc(-c5ccc(S(C)(=O)=O)nc5)nc4s3)C2)n1 (stereo partly drawn) [Compound 1141, 2-((S)-1-(-(3-isopropyl-1,2,4-oxadiazol-5-yl)pyrrolidin-3-yl)ethoxy)-5-(6-(methylsulfonyl)pyridin-3-yl)thiazolo[5,4-b]pyridine]
77	50 to 100	CC(C)c1noc(N2CCC([C@H](C)Oc3nc4ccc(-c5ccc(C(F)(F)F)nc5)nc4s3)CC2)n1 [Compound 1152, 2-(1-(1-(3-isopropyl-1,2,4-oxadiazol-5-yl)piperidin-4-yl)ethoxy)-5-(6-(trifluoromethyl)pyridin-3-yl)thiazolo[5,4-b]pyridine]
22	–	Cc1nc(S(C)(=O)=O)ccc1-c1ccc2nc(OC(C)C3CCN(c4nc(C(C)C)no4)CC3)sc2n1 (stereo in doubt) [Compound 1168, 2-((S)-1-(1-(3-isopropyl-1,2,4-oxadiazol-5-yl)piperidin-4-yl)ethoxy)-5-(2-methyl-6-(methylsulfonyl)pyridin-3-yl)thiazolo[5,4-b]pyridine]
